Assay results published in US7326403B2, “Radioactive iodine-labeled compound” (FUJIFILM Corporation, priority 2003, dated 2008).

How the values were obtained:
[1] = tested on: NIH3T3 (fibroblast, control); experiment: Uptake experiment in normal control cells (NIH3T3); assay type: cell-based; details: 0.5 μCi, mean ± S.D.
Description: (ii) NIH3T3 (Fibroblast, Control)
A commercially available DMEM medium (Nissui) was dissolved in extra pure water (500 ml), autoclaved, and added with L-glutamine (0.15 g), Meylon (7% aqueous sodium hydrogencarbonate, a pharmaceutical preparation for injection, 14 ml) and FBS (55 ml) in a clean bench to prepare a medium. Cells were cultured in this medium.
(§1) Cells cryopreserved in a medium containing 10% DMSO were thawed, transferred to a 15-ml Falcon tube, and added with PBS to a volume of 5 ml. The mixture was centrifuged at 1300 rpm for 5 minutes. The supernatant was removed by suction, and the precipitates were suspended in PBS (5 ml). The suspension was centrifuged again at 1300 rpm for 5 minutes. The supernatant was removed by suction, and the precipitates were suspended in a medium (10 ml), inoculated in a 10-cm dish and left standing at 37° C. in a 5% CO2 incubator.
After 1 week, when the cells were proliferated to 80 to 90% of the 10-cm dish, the cells were subcultured in a 15-cm dish.
The 10-cm dish was taken out from the incubator, and the supernatant was removed by suction. The cells were washed three times with PBS, added with trypsin-EDTA (0.05% trypsin, 0.53 mM EDTA tetrasodium salt, 1 ml) and PBS (1 ml) and left standing in a CO2 incubator for 10 minutes. The dish was taken out from the incubator, and separation of the cells was observed. Then, the cells were transferred to a 15-ml Falcon tube. […]
(§2) Two days before the uptake experiment, the cells were inoculated on a 24-well plate ([…] of cell-suspended medium/well, 5 wells/plate per one type of cell). […] For the 4 wells to which the compound of the present invention was added, the cells were separated with 0.2 N NaOH and subjected to measurement of radioactivity. For the remaining 1 well, trypsin-EDTA was added to separate the cells, and the number of cells was counted by using a blood cell counter. Percent doses, which were converted to values for 100,000 cells based on the number of cells and radioactivity, and ratios relative to the normal cells (NIH3T3) were calculated. […]

[2] = tested on: SHIN-III (human ovary cancer cell); experiment: Uptake experiment in tumor cells (SHIN-III); assay type: cell-based; details: for uptake, percent dose converted to 100,000 cells: SHIN-III, 0.5 μCi, mean ± S.D.
Description: (§3) (i) LS180 (Human Colon Cancer Cell), SHIN-III (Human Ovary Cancer Cell) and U87MG (Glioma)
(§4) A commercially available medium, RPMI1640 (Nissui, 5.1 g), was dissolved in extra pure water (500 ml), autoclaved, and added with L-glutamine (0.15 g), Meylon (7% aqueous sodium hydrogencarbonate, a pharmaceutical preparation for injection, 14 ml) and FBS (55 ml) in a clean bench to prepare a medium. Cells were cultured in this medium.
as §1
(§5) After 3 days, when the cells were proliferated to 80 to 90% of the 10-cm dish, the cells were subcultured in a 15-cm dish.
(§6) The 10-cm dish was taken out from the incubator, and the supernatant was removed by suction. The cells were washed three times with PBS, added with trypsin-EDTA (0.05% trypsin, 0.53 mM EDTA tetrasodium salt, 1 ml) and PBS (1 ml) and left standing in a CO2 incubator for 10 minutes. The dish was taken out from the incubator, and separation of the cells was observed. Then, the cells were transferred to a 15-ml Falcon tube. The cells were added with PBS to a volume of 5 ml and centrifuged at 1300 rpm for 5 minutes, and the supernatant was removed by suction. The precipitates were suspended in PBS (5 ml) and centrifuged at 1300 rpm for 5 minutes, and the supernatant was removed by suction. The precipitates were suspended in a medium (8 ml), and inoculated in a volume of 4 ml each to two of 15-cm dishes, to which the medium (16 ml) was added beforehand, and left standing at 37° C. in a 5% CO2 incubator.
as §2

U87MG (glioma) = experiment: Uptake experiment in tumor cells (U87MG); assay type: cell-based; details: for uptake, percent dose converted to 100,000 cells: U87MG, 0.5 μCi, mean ± S.D.
Description: as §3, §4, §1, §5, §6, §2

[3] = tested on: SHIN-III human ovary cancer cells (tumor tissue vs muscle tissue); experiment: Distribution experiment in vivo, nude mice transplanted with SHIN-III; details: 18.5 kBq via caudal vein, 5, 10 and 30 minutes, FIG. 1
Description: 1.0×10^6 cells of SHIN-III human ovary cancer cells were subcutaneously inoculated in the femoral region of nude mice (male, 5-week old). […] After 5 minutes, 10 minutes and 30 minutes, the mice were sacrificed, and the weight and radioactivity of each organ were measured.

[4] = tested on: LS180 (human colon cancer cell); experiment: Uptake experiment in tumor cells (LS180); assay type: cell-based; details: for uptake, percent dose converted to 100,000 cells: 0.5 μCi, mean ± S.D.
Description: as §3, §4, §1, §5, §6, §2

CCn1c(=O)/c(=C2\Sc3ccccc3N2Cc2ccc([125I])cc2)s/c1=C\c1cccc[n+]1CC [the compound of the present invention]
uptake, percent dose converted to 100,000 cells ([1]; after 30 minutes): 1.40 ± 0.03 % dose/100000 cells | uptake, percent dose converted to 100,000 cells ([1]; after 1 hour): 2.12 ± 0.14 % dose/100000 cells | uptake, percent dose converted to 100,000 cells ([1]; after 3 hours): 3.34 ± 0.18 % dose/100000 cells | uptake ratio relative to the normal cells (NIH3T3) ([2]; SHIN-III vs NIH3T3): about seven | uptake, percent dose converted to 100,000 cells ([2]; after 30 minutes): 6.26 ± 0.73 % dose/100000 cells | uptake, percent dose converted to 100,000 cells ([2]; after 1 hour): 11.7 ± 1.16 % dose/100000 cells | uptake, percent dose converted to 100,000 cells ([2]; after 3 hours): 25.2 ± 2.42 % dose/100000 cells | uptake ratio relative to the normal cells (NIH3T3) (U87MG (glioma); U87MG vs NIH3T3): about 7 times | uptake, percent dose converted to 100,000 cells (U87MG (glioma); after 30 minutes): 3.19 ± 1.86 % dose/100000 cells | uptake, percent dose converted to 100,000 cells (U87MG (glioma); after 1 hour): 3.07 ± 0.09 % dose/100000 cells | uptake, percent dose converted to 100,000 cells (U87MG (glioma); after 3 hours): 5.32 ± 0.70 % dose/100000 cells | accumulation in the tumor tissue and muscle tissue [3]: accumulate in a higher concentration in the tumor tissue than in the muscle | uptake, percent dose converted to 100,000 cells ([4]; LS180, after 30 minutes): 3.37 ± 0.31 % dose/100000 cells | uptake, percent dose converted to 100,000 cells ([4]; LS180, after 1 hour): 5.33 ± 0.43 % dose/100000 cells | uptake, percent dose converted to 100,000 cells ([4]; LS180, after 3 hours): 10.2 ± 0.97 % dose/100000 cells | uptake ratio relative to the normal cells (NIH3T3) ([4]; LS180 vs NIH3T3): about three
